Measured values published in patent US20080193398A1, “Derivatives of Heptaazaphenalene, Methods for Obtaining Them, and Their Use as Protecting Agents Against Uv Radiation” (ISDIN, S.A., priority 2005, published 2008).
Where “and” joins values, the source holds several entries; their conditions need not be identical. Identical values can stand only once.

experiment: UV absorption (UV λmax and εmax) in solution; type: physicochemical; conditions: CHCl3-MeOH
Source text: There follow some examples where the UV λmax and εmax have been measured according to general methods known for the person skilled in the art by way of non-restrictive illustration of the present invention.

With c1ccc2[nH]c(-c3ccc(NC4=NC5=NC(Nc6ccc(-c7nc8ccccc8[nH]7)cc6)=NC6=NC(Nc7ccc(-c8nc9ccccc9[nH]8)cc7)=NC(=N4)N56)cc3)nc2c1 [Example 7, 2,5,8-tris-(4-(1H-benzo[d]imidazol-2-yl)phenylamino)-1,3,4,6,7,9,9b-heptaazaphenalene] the “UV λmax” value was 358 nm.

Work on c1ccc2[nH]c(-c3ccc(NC4=NC5=NC(Nc6ccc(-c7nc8ccccc8[nH]7)cc6)=NC6=NC(Nc7ccc(-c8nc9ccccc9[nH]8)cc7)=NC(=N4)N56)cc3)nc2c1 [Example 7, 2,5,8-tris-(4-(1H-benzo[d]imidazol-2-yl)phenylamino)-1,3,4,6,7,9,9b-heptaazaphenalene] yielded a εmax of 107000 M⁻¹ cm⁻¹.

same assay, conditions: DMSO

First: c1ccn2cc(-c3ccc(NC4=NC5=NC(Nc6ccc(-c7cn8ccccc8n7)cc6)=NC6=NC(Nc7ccc(-c8cn9ccccc9n8)cc7)=NC(=N4)N56)cc3)nc2c1 [Example 3, 2,5,8-tris-(4-(imidazo[1,2-a]pyridin-2-yl)-phenylamino)-1,3,4,6,7,9,9b-heptaazaphenalene]
Second: c1ccc(-c2ccc(NC3=NC4=NC(Nc5ccc(-c6ccccc6)cc5)=NC5=NC(Nc6ccc(-c7ccccc7)cc6)=NC(=N3)N45)cc2)cc1 [Example 6, 2,5,8-tris-(biphenyl-4-ylamino)-1,3,4,6,7,9,9b-heptaazaphenalene]
The “UV λmax” value of the first is higher: 353 nm for the first, 333 nm for the second.

Compared with CCCCOC(=O)c1ccc(NC2=NC3=NC(Nc4ccc(C(=O)OCCCC)cc4)=NC4=NC(c5cn(C)c6ccccc56)=NC(=N2)N34)cc1 [Example 18], CCCCCCCCCCCCOC(=O)c1ccc(NC2=NC3=NC(Nc4ccc(C(=O)OCCCCCCCCCCCC)cc4)=NC4=NC(Nc5ccc(C(=O)OCCCCCCCCCCCC)cc5)=NC(=N2)N34)cc1 [Example 44, 2,5,8-tris-(4-(dodecyloxycarbonyl)phenylamino)-1,3,4,6,7,9,9b-heptaazaphenalene] is lower in “UV λmax” value: 337 nm for the first, 326 nm for the second.

Going from c1ccc(-c2ccc(OC3=NC4=NC(Oc5ccc(-c6ccccc6)cc5)=NC5=NC(Oc6ccc(-c7ccccc7)cc6)=NC(=N3)N45)cc2)cc1 [Example 19, 2,5,8-tris-(biphenyl-4-yloxy)-1,3,4,6,7,9,9b-heptaazaphenalene] to c1ccc(Nc2ccc(NC3=NC4=NC(Nc5ccc(Nc6ccccc6)cc5)=NC5=NC(Nc6ccc(Nc7ccccc7)cc6)=NC(=N3)N45)cc2)cc1 [Example 27, 2,5,8-tris-(4-(phenylamino)phenylamino)-1,3,4,6,7,9,9b-heptaazaphenalene], the “UV λmax” value rises from 262 nm to 360 nm.

Going from COc1ccc(NC2=NC3=NC(Nc4ccc(OC)cc4)=NC4=NC(Nc5ccc(OC)cc5)=NC(=N2)N34)cc1 [Example 21, 2,5,8-tris-(4-methoxyphenylamino)-1,3,4,6,7,9,9b-heptaazaphenalene] to c1cc2cc(NC3=NC4=NC(Nc5ccc6[nH]ccc6c5)=NC5=NC(Nc6ccc7[nH]ccc7c6)=NC(=N3)N45)ccc2[nH]1 [Example 46, 2,5,8-tris-(1H-indol-5-ylamino)-1,3,4,6,7,9,9b-heptaazaphenalene], the “UV λmax” value rises from 324 nm to 331 nm.

Going from COC(=O)c1ccc(-c2ccc(NC3=NC4=NC(Nc5ccc(-c6ccc(C(=O)OC)cc6)cc5)=NC5=NC(Nc6ccc(-c7ccc(C(=O)OC)cc7)cc6)=NC(=N3)N45)cc2)cc1 [Example 23, 2,5,8-tris-(methoxycarbonyl-4′-biphenyl-4-ylamino)-1,3,4,6,7,9,9b-heptaazaphenalene] to CC12CCC(C1)C(C)(C)C2OC(=O)c1ccc(NC2=NC3=NC(Nc4ccc(C(=O)OC5C6(C)CCC(C6)C5(C)C)cc4)=NC4=NC(Nc5ccc(C(=O)OC6C7(C)CCC(C7)C6(C)C)cc5)=NC(=N2)N34)cc1 (centres unmarked) [Example 45], the “UV λmax” value falls from 346 nm to 330 nm.

First: Cc1ccc(C2=NC3=NC(c4ccc(C)cc4)=NC4=NC(c5ccc(C)cc5)=NC(=N2)N34)cc1 [Example 25, 2,5,8-tris-(4-methylphenyl)-1,3,4,6,7,9,9b-heptaazaphenalene]
Second: O=[N+]([O-])c1cccc(NC2=NC3=NC(Nc4cccc([N+](=O)[O-])c4)=NC4=NC(Nc5cccc([N+](=O)[O-])c5)=NC(=N2)N34)c1 [Example 35, 2,5,8-tris-(3-nitrophenylamino)-1,3,4,6,7,9,9b-heptaazaphenalene]
The “UV λmax” value of the first is higher: 327 nm for the first, 308 nm for the second.

First: CCCCC(CC)CNC1=NC2=NC(NCC(CC)CCCC)=NC3=NC(NCC(CC)CCCC)=NC(=N1)N23 (centres unmarked) [Example 29, 2,5,8-tris-(2-ethylhexylamino)-1,3,4,6,7,9,9b-heptaazaphenalene]
Second: CCCCCCCCC(CCCCCC)COC(=O)c1ccc(NC2=NC3=NC(Nc4ccc(C(=O)OCC(CCCCCC)CCCCCCCC)cc4)=NC4=NC(Nc5ccc(C(=O)OCC(CCCCCC)CCCCCCCC)cc5)=NC(=N2)N34)cc1 (centres unmarked) [Example 38, 2,5,8-tris-(4-(^2-hexyldecyloxycarbonyl)phenylamino)-1,3,4,6,7,9,9b-heptaazaphenalene]
The “UV λmax” value of the first is lower: 265 nm for the first, 324 nm for the second.

First: C(=C\c1cccc(NC2=NC3=NC(Nc4cccc(/C=C/c5ccccc5)c4)=NC4=NC(Nc5cccc(/C=C/c6ccccc6)c5)=NC(=N2)N34)c1)/c1ccccc1 [Example 37, 2,5,8-tris-((3-(E)-styrylphenyl)amino)-1,3,4,6,7,9,9b-heptaazaphenalene]
Second: Cc1cc(N)c(NC2=NC3=NC(Nc4cc(C)c(C)cc4N)=NC4=NC(Nc5cc(C)c(C)cc5N)=NC(=N2)N34)cc1C [Example 48, 2,5,8-tris-(2-amino-4,5-dimethylphenylamino)-1,3,4,6,7,9,9b-heptaazaphenalene]
The “UV λmax” value of the first is higher: 316 nm for the first, 270 nm for the second.

With CCCCCCCCCCCCCCCCCCOC(=O)c1ccc(NC2=NC3=NC(Nc4ccc(C(=O)OCCCCCCCCCCCCCCCCCC)cc4)=NC4=NC(Nc5ccc(C(=O)OCCCCCCCCCCCCCCCCCC)cc5)=NC(=N2)N34)cc1 [Example 40, 2,5,8-tris-(4-(octadecyloxycarbonyl)phenylamino)-1,3,4,6,7,9,9b-heptaazaphenalene] the “UV λmax” value was 324 nm.

c1ccn2cc(-c3ccc(NC4=NC5=NC(Nc6ccc(-c7cn8ccccc8n7)cc6)=NC6=NC(Nc7ccc(-c8cn9ccccc9n8)cc7)=NC(=N4)N56)cc3)nc2c1 [Example 3, 2,5,8-tris-(4-(imidazo[1,2-a]pyridin-2-yl)-phenylamino)-1,3,4,6,7,9,9b-heptaazaphenalene] and c1ccc(-c2ccc(NC3=NC4=NC(Nc5ccc(-c6ccccc6)cc5)=NC5=NC(Nc6ccc(-c7ccccc7)cc6)=NC(=N3)N45)cc2)cc1 [Example 6, 2,5,8-tris-(biphenyl-4-ylamino)-1,3,4,6,7,9,9b-heptaazaphenalene] are within 1.5-fold of each other in εmax: 75000 M⁻¹ cm⁻¹ for the first, 103000 M⁻¹ cm⁻¹ for the second.

CCCCOC(=O)c1ccc(NC2=NC3=NC(Nc4ccc(C(=O)OCCCC)cc4)=NC4=NC(c5cn(C)c6ccccc56)=NC(=N2)N34)cc1 [Example 18] and CCCCCCCCCCCCOC(=O)c1ccc(NC2=NC3=NC(Nc4ccc(C(=O)OCCCCCCCCCCCC)cc4)=NC4=NC(Nc5ccc(C(=O)OCCCCCCCCCCCC)cc5)=NC(=N2)N34)cc1 [Example 44, 2,5,8-tris-(4-(dodecyloxycarbonyl)phenylamino)-1,3,4,6,7,9,9b-heptaazaphenalene] are within 1.5-fold of each other in εmax: 65000 M⁻¹ cm⁻¹ for the first, 87000 M⁻¹ cm⁻¹ for the second.

c1ccc(-c2ccc(OC3=NC4=NC(Oc5ccc(-c6ccccc6)cc5)=NC5=NC(Oc6ccc(-c7ccccc7)cc6)=NC(=N3)N45)cc2)cc1 [Example 19, 2,5,8-tris-(biphenyl-4-yloxy)-1,3,4,6,7,9,9b-heptaazaphenalene] and c1ccc(Nc2ccc(NC3=NC4=NC(Nc5ccc(Nc6ccccc6)cc5)=NC5=NC(Nc6ccc(Nc7ccccc7)cc6)=NC(=N3)N45)cc2)cc1 [Example 27, 2,5,8-tris-(4-(phenylamino)phenylamino)-1,3,4,6,7,9,9b-heptaazaphenalene] are within 1.5-fold of each other in εmax: 81000 M⁻¹ cm⁻¹ for the first, 60000 M⁻¹ cm⁻¹ for the second.

COc1ccc(NC2=NC3=NC(Nc4ccc(OC)cc4)=NC4=NC(Nc5ccc(OC)cc5)=NC(=N2)N34)cc1 [Example 21, 2,5,8-tris-(4-methoxyphenylamino)-1,3,4,6,7,9,9b-heptaazaphenalene] and c1cc2cc(NC3=NC4=NC(Nc5ccc6[nH]ccc6c5)=NC5=NC(Nc6ccc7[nH]ccc7c6)=NC(=N3)N45)ccc2[nH]1 [Example 46, 2,5,8-tris-(1H-indol-5-ylamino)-1,3,4,6,7,9,9b-heptaazaphenalene] are within 1.5-fold of each other in εmax: 59000 M⁻¹ cm⁻¹ for the first, 46000 M⁻¹ cm⁻¹ for the second.

Going from COC(=O)c1ccc(-c2ccc(NC3=NC4=NC(Nc5ccc(-c6ccc(C(=O)OC)cc6)cc5)=NC5=NC(Nc6ccc(-c7ccc(C(=O)OC)cc7)cc6)=NC(=N3)N45)cc2)cc1 [Example 23, 2,5,8-tris-(methoxycarbonyl-4′-biphenyl-4-ylamino)-1,3,4,6,7,9,9b-heptaazaphenalene] to CC12CCC(C1)C(C)(C)C2OC(=O)c1ccc(NC2=NC3=NC(Nc4ccc(C(=O)OC5C6(C)CCC(C6)C5(C)C)cc4)=NC4=NC(Nc5ccc(C(=O)OC6C7(C)CCC(C7)C6(C)C)cc5)=NC(=N2)N34)cc1 (centres unmarked) [Example 45], the εmax rises from 99000 M⁻¹ cm⁻¹ to 150000 M⁻¹ cm⁻¹ (1.5-fold).

Cc1ccc(C2=NC3=NC(c4ccc(C)cc4)=NC4=NC(c5ccc(C)cc5)=NC(=N2)N34)cc1 [Example 25, 2,5,8-tris-(4-methylphenyl)-1,3,4,6,7,9,9b-heptaazaphenalene] and O=[N+]([O-])c1cccc(NC2=NC3=NC(Nc4cccc([N+](=O)[O-])c4)=NC4=NC(Nc5cccc([N+](=O)[O-])c5)=NC(=N2)N34)c1 [Example 35, 2,5,8-tris-(3-nitrophenylamino)-1,3,4,6,7,9,9b-heptaazaphenalene] are within 1.5-fold of each other in εmax: 86000 M⁻¹ cm⁻¹ for the first, 113000 M⁻¹ cm⁻¹ for the second.

CCCCC(CC)CNC1=NC2=NC(NCC(CC)CCCC)=NC3=NC(NCC(CC)CCCC)=NC(=N1)N23 (centres unmarked) [Example 29, 2,5,8-tris-(2-ethylhexylamino)-1,3,4,6,7,9,9b-heptaazaphenalene] and CCCCCCCCC(CCCCCC)COC(=O)c1ccc(NC2=NC3=NC(Nc4ccc(C(=O)OCC(CCCCCC)CCCCCCCC)cc4)=NC4=NC(Nc5ccc(C(=O)OCC(CCCCCC)CCCCCCCC)cc5)=NC(=N2)N34)cc1 (centres unmarked) [Example 38, 2,5,8-tris-(4-(^2-hexyldecyloxycarbonyl)phenylamino)-1,3,4,6,7,9,9b-heptaazaphenalene] are within 1.5-fold of each other in εmax: 92000 M⁻¹ cm⁻¹ for the first, 121000 M⁻¹ cm⁻¹ for the second.

First: C(=C\c1cccc(NC2=NC3=NC(Nc4cccc(/C=C/c5ccccc5)c4)=NC4=NC(Nc5cccc(/C=C/c6ccccc6)c5)=NC(=N2)N34)c1)/c1ccccc1 [Example 37, 2,5,8-tris-((3-(E)-styrylphenyl)amino)-1,3,4,6,7,9,9b-heptaazaphenalene]
Second: Cc1cc(N)c(NC2=NC3=NC(Nc4cc(C)c(C)cc4N)=NC4=NC(Nc5cc(C)c(C)cc5N)=NC(=N2)N34)cc1C [Example 48, 2,5,8-tris-(2-amino-4,5-dimethylphenylamino)-1,3,4,6,7,9,9b-heptaazaphenalene]
The εmax of the first is 3.8-fold higher: 167000 M⁻¹ cm⁻¹ for the first, 44000 M⁻¹ cm⁻¹ for the second.

CCCCCCCCCCCCCCCCCCOC(=O)c1ccc(NC2=NC3=NC(Nc4ccc(C(=O)OCCCCCCCCCCCCCCCCCC)cc4)=NC4=NC(Nc5ccc(C(=O)OCCCCCCCCCCCCCCCCCC)cc5)=NC(=N2)N34)cc1 [Example 40, 2,5,8-tris-(4-(octadecyloxycarbonyl)phenylamino)-1,3,4,6,7,9,9b-heptaazaphenalene] showed a εmax of 117000 M⁻¹ cm⁻¹.

In the case of CCCCC(CC)COC(=O)/C=C/c1ccc(NC2=NC3=NC(Nc4ccc(/C=C/C(=O)OCC(CC)CCCC)cc4)=NC4=NC(Nc5cccc(/C=C/C(=O)OCC(CC)CCCC)c5)=NC(=N2)N34)cc1 (centres unmarked) [Example 34, 2-(3-((E)-3-(2-ethylhexyloxy)-3-oxoprop-1-enyl)phenylamino)-5,8-bis-(4-((E) -3-(2-ethylhexyloxy)-3-oxoprop-1-enyl)phenylamino)-1,3,4,6,7,9,9b-heptaazaphenalene], the “UV λmax” value is reported as 288 nm and 354 nm.

For CCCCC(CC)COC(=O)/C=C/c1ccc(NC2=NC3=NC(Nc4ccc(/C=C/C(=O)OCC(CC)CCCC)cc4)=NC4=NC(Nc5cccc(/C=C/C(=O)OCC(CC)CCCC)c5)=NC(=N2)N34)cc1 (centres unmarked) [Example 34, 2-(3-((E)-3-(2-ethylhexyloxy)-3-oxoprop-1-enyl)phenylamino)-5,8-bis-(4-((E) -3-(2-ethylhexyloxy)-3-oxoprop-1-enyl)phenylamino)-1,3,4,6,7,9,9b-heptaazaphenalene], the εmax was 66000 M⁻¹ cm⁻¹ and 113000 M⁻¹ cm⁻¹.

same assay, conditions: EtOH

With Cc1cc2c(n1-c1ccc(NC3=NC4=NC(Nc5ccc(-n6c(C)cc7c6CC(C)(C)CC7=O)cc5)=NC5=NC(Nc6ccc(-n7c(C)cc8c7CC(C)(C)CC8=O)cc6)=NC(=N3)N45)cc1)CC(C)(C)CC2=O [Example 4, 2,5,8-tris-(4-(4,5,6,7-tetrahydro-2,6,6-trimethyl-4-oxoindol-1-yl)phenylamine)-1,3,4,6,7,9,9b-heptaazaphenalene] the “UV λmax” value was 314 nm.

With Cc1cc2c(n1-c1ccc(NC3=NC4=NC(Nc5ccc(-n6c(C)cc7c6CC(C)(C)CC7=O)cc5)=NC5=NC(Nc6ccc(-n7c(C)cc8c7CC(C)(C)CC8=O)cc6)=NC(=N3)N45)cc1)CC(C)(C)CC2=O [Example 4, 2,5,8-tris-(4-(4,5,6,7-tetrahydro-2,6,6-trimethyl-4-oxoindol-1-yl)phenylamine)-1,3,4,6,7,9,9b-heptaazaphenalene] the εmax was 103000 M⁻¹ cm⁻¹.

experiment: not given; conditions: not given

With c1ccc(-c2ccc(NC3=NC4=NC(Nc5ccc(-c6ccccc6)cc5)=NC5=NC(Nc6ccc(-c7ccccc7)cc6)=NC(=N3)N45)cc2)cc1 the melting point was greater than 310 °C.
